Measured values as given in patent publication US8263606B2 (Xenon Pharmaceuticals Inc., priority 2008, dated 2012).

Assays:
sodium channel = experiment: Guanidine influx assay (14C-guanidine radiotracer flux, in vitro); format: cell-based, human or rat; conditions: guanidine influx assay using a known cell line that expresses a sodium channel
Procedure, shortened: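 Aconitine holds channels open while 14C-guanidine enters human or rat sodium-channel-expressing cells in choline-substituted low-sodium saline, with test agent present at ambient temperature. Retained tracer is scintillation-counted and IC50 fitted by a four-parameter logistic model.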

CYP3A4 = CYP3A4 (Homo sapiens, UniProt P08684); experiment: Cytochrome P450 (CYP450) Inhibition Assay, CYP3A4 (Vivid fluorescence, BOMCC substrate); conditions: human, P450 Baculosomes (recombinant CYP3A4), probe BOMCC (Vivid substrate)
Sequence of CYP3A4 (P08684 whole entry): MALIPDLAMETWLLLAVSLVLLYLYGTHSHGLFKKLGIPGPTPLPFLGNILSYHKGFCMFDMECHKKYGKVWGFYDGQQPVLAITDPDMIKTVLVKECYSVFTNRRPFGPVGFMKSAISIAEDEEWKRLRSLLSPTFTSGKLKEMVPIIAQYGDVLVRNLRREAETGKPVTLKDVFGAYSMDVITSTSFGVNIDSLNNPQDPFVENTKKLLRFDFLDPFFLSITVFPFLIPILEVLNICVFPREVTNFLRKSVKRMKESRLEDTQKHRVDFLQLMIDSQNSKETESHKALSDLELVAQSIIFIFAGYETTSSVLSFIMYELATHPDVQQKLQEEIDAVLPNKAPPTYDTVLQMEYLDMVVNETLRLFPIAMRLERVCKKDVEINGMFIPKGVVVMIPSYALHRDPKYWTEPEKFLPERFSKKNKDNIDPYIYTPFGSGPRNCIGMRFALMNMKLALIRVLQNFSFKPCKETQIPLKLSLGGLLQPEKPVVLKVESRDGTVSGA

IC50 (sodium channel)	inhibition at 10 µM (CYP3A4)	melting point	Compound
1 to 100 nM	< 50%	217 to 218 °C	O=C1N(Cc2ncccc2Br)c2ccccc2C12COc1cc3c(cc12)OCCO3 (stereo not drawn) [Example 11.78]
100 to 1000 nM	< 50%	> 250 °C	CS(=O)(=O)c1cccnc1CN1C(=O)C2(COc3cc4c(cc32)OCCO4)c2ccccc21 (stereo not drawn) [Example 11.79]
1 to 100 nM	< 50%	230 to 233 °C	N#Cc1cccnc1CN1C(=O)C2(COc3cc4c(cc32)OCCO4)c2ccccc21 (stereo not drawn) [Example 11.80]
1 to 100 nM	< 50%	181 to 182 °C	O=C1N(Cc2ncccc2C(F)F)c2ccccc2[C@]12COc1cc3c(cc12)OCCO3 [Example 11.81, (8S)-1′-{[3-(difluoromethyl)pyridin-2-yl]methyl}-2,3-dihydrospiro[furo[2,3-g][1,4]benzodioxine-8,3′-indol]-2′(1′H)-one]
1 to 100 nM	> 50%	90 to 95 °C	Cc1nc(-c2cccc(CN3C(=O)C4(COc5cc6c(cc54)OCCO6)c4ccccc43)c2)no1 (stereo not drawn) [Example 11.83, 1′-[3-(5-methyl-1,2,4-oxadiazol-3-yl)benzyl]-2,3-dihydrospiro[furo[2,3-g][1,4]benzodioxine-8,3′-indol]-2′(1′H)-one]
1 to 100 nM	< 50%	174 to 175 °C	Cc1nc(-c2ccc(CN3C(=O)C4(COc5cc6c(cc54)OCCO6)c4ccccc43)cc2)no1 (stereo not drawn) [Example 11.84, 1′-[4-(5-methyl-1,2,4-oxadiazol-3-yl)benzyl]-2,3-dihydrospiro[furo[2,3-g][1,4]benzodioxine-8,3′-indol]-2′(1′H)-one]
1000 to 10000 nM	< 50%	254 to 258 °C	O=C(O)c1cccc(CN2C(=O)C3(COc4cc5c(cc43)OCCO5)c3ccccc32)c1 (stereo not drawn) [Example 11.86, 3-[(2′-oxo-2,3-dihydrospiro[furo[2,3-g][1,4]benzodioxine-8,3′-indol]-1′(2′H)-yl)methyl]benzoic acid]
1000 to 10000 nM	< 50%	234 to 237 °C	O=C(O)c1ccc(CN2C(=O)C3(COc4cc5c(cc43)OCCO5)c3ccccc32)cc1 (stereo not drawn) [Example 11.87, 4-[(2′-oxo-2,3-dihydrospiro[furo[2,3-g][1,4]benzodioxine-8,3′-indol]-1′(2′H)-yl)methyl]benzoic acid]
1 to 100 nM	> 50%	159 to 160 °C	O=C1N(Cc2noc(C(F)(F)F)n2)c2ccccc2C12COc1cc3c(cc12)OCCO3 (stereo not drawn) [Example 11.90, 1′-{[5-(trifluoromethyl)-1,2,4-oxadiazol-3-yl]methyl}-2,3-dihydrospiro[furo[2,3-g][1,4]benzodioxine-8,3′-indol]-2′(1′H)-one]
1 to 100 nM	< 50%	137 to 139 °C	O=C1N(Cc2nnc(C(F)(F)F)o2)c2ccccc2C12COc1cc3c(cc12)OCCO3 (stereo not drawn) [Example 11.92, 1′-{[5-(trifluoromethyl)-1,3,4-oxadiazol-2-yl]methyl}-2,3-dihydrospiro[furo[2,3-g][1,4]benzodioxine-8,3′-indol]-2′(1′H)-one]
1000 to 10000 nM	> 50%	213 to 216 °C	CC(C)N1CCC(CN2C(=O)C3(COc4cc5c(cc43)OCCO5)c3ccccc32)CC1.Cl (stereo not drawn) [Example 11.100, 1′-{[1-(1-methylethyl)piperidin-4-yl]methyl}-2,3-dihydrospiro[furo[2,3-g][1,4]benzodioxine-8,3′-indol]-2′(1′H)-one hydrochloride]
1000 to 10000 nM	< 50%	154 to 159 °C	O=C1N(CC2CNCCO2)c2ccccc2C12COc1cc3c(cc12)OCCO3 (stereo not drawn) [Example 11.102, 1-(morpholin-2-ylmethyl)-2,3-dihydrospiro[furo[2,3-g][1,4]benzodioxine-8,3′-indol]-2′(1′1-1)-one]
100 to 1000 nM	> 50%	102 to 125 °C	CC(C)N1CCOC(CN2C(=O)C3(COc4cc5c(cc43)OCCO5)c3ccccc32)C1 (stereo not drawn) [Example 11.103, 1′-{[4-(1-methylethyl)morpholin-2-yl]methyl}-2,3-dihydrospiro[furo[2,3-g][1,4]benzodioxine-8,3′-indol]-2′(1′H)-one]
100 to 1000 nM	> 50%	102 to 112 °C	CN1CCOC(CN2C(=O)C3(COc4cc5c(cc43)OCCO5)c3ccccc32)C1 (stereo not drawn) [Example 11.104, 1-[(4-methylmorpholin-2-yl)methyl]-2,3-dihydrospiro[furo[2,3-g][1,4]benzodioxine-8,3′-indol]-2′(1′H)-one]
1 to 100 nM	< 50%	85 to 90 °C	CN1CCO[C@H](CN2C(=O)[C@@]3(COc4cc5c(cc43)OCCO5)c3ccccc32)C1 [Example 11.106, (8S)-1′-{[(2S)-4-methylmorpholin-2-yl]methyl}-2,3-dihydrospiro[furo[2,3-g][1,4]benzodioxine-8,3′-indol]-2′(1′H)-one]
1000 to 10000 nM	> 50%	212 to 215 °C	O=C1N(Cc2ncccc2C(F)(F)F)c2ccccc2C12COc1ccc3nonc3c12 (stereo not drawn) [Example 11.107, 1′-{[3-(trifluoromethyl)pyridin-2-yl]methyl}spiro[furo[3,2-e][2,1,3]benzoxadiazole-8,3′-indol]-2′(1′H)-one]
1000 to 10000 nM	< 50%	273 to 275 °C	O=C1N(Cc2ncccc2C(F)(F)F)c2ccccc2C12COc1c(Cl)cc3c(c12)OCCO3 (stereo not drawn) [Example 11.108, 6-chloro-1′-{[3-(trifluoromethyl)pyridin-2-yl]methyl}-2,3-dihydrospiro[furo[3,2-f][1,4]benzodioxine-9,3′-indol]-2′(1′H)-one]
1000 to 10000 nM	< 50%	245 to 247 °C	O=C1N(Cc2ncccc2C(F)(F)F)c2ccccc2C12COc1ccc3c(c12)OCCO3 (stereo not drawn) [Example 11.109, 1′-{[3-(trifluoromethyl)pyridin-2-yl]methyl}-2,3-dihydrospiro[furo[3,2-f][1,4]benzodioxine-9,3′-indol]-2′(1′H)-one]
1 to 100 nM	> 50%	173 to 175 °C	O=C1N(Cc2ccc(C(F)F)o2)c2ccccc2C12COc1cc3c(cc12)OCCO3 (stereo not drawn) [Example 11.110, 1-{[5-(difluoromethyl)furan-2-yl]methyl}-2,3-dihydrospiro[furo[2,3-g][1,4]benzodioxine-8,3′-indol]-2′(1′H)-one]
1 to 100 nM	> 50%	> 200 °C	Cl.O=C1N(CC2CCNCC2)c2ccccc2C12COc1cc(F)c(F)cc12 (stereo not drawn) [Example 11.111, 5,6-difluoro-1′-(piperidin-4-ylmethyl)spiro[1-benzofuran-3,3′-indol]-2′(1′H)-one hydrochloride]
100 to 1000 nM	> 50%	72 to 73 °C	COCCNC(=O)c1cccc(CN2C(=O)C3(COc4cc5c(cc43)CCO5)c3ccccc32)c1 (stereo not drawn) [Example 12.1, N-(2-methoxyethyl)-3-[(2′-oxo-5,6-dihydrospiro[benzo[1,2-b:5,4-b′]difuran-3,3′-indol]-1′(2′H)-yl)methyl]benzamide]
